# In publication PMC2999882 (Molecular pharmacology, 2008):
# “And” between values parts separate entries of the source, which are not always exact repeats. Equal values may be shown once. Read-outs that look alike come from different tables or passages of the source.
# Legend:
# [1] = molecular target: rat brain membrane α7 sites; settings: cited from earlier work
# [2] = molecular target: T1, 5HT3 receptors (Homo sapiens, UniProt P46098); settings: cited from earlier work
# T1 sequence (P46098 24-478): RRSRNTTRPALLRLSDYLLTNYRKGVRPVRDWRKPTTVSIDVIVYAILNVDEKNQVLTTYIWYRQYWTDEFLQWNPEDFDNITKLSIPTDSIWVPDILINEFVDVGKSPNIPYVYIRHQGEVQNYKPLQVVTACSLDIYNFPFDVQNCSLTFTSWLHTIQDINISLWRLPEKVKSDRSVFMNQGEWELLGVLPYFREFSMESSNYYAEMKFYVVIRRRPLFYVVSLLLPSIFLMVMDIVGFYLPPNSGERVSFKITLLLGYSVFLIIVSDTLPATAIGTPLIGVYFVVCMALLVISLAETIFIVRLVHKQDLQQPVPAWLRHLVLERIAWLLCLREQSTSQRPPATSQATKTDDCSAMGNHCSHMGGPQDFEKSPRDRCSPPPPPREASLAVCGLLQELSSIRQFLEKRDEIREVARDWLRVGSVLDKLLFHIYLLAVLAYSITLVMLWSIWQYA
# [3] = system: other nAChR tested; settings: cited from earlier work
# [4] = system: α7 nAChR; settings: cited from earlier work
# [5] = molecular target: T1, 5HT3 receptors; format: cell-based; settings: 100 µM coapplied with 10 µM serotonin
# [6] = molecular target: α3β4 nAChR (Homo sapiens, UniProt P30926+P32297)
# [7] = system: α9 nAChR; settings: ref Papke et al., 1996; Verbitsky et al., 2000; cited from earlier work
# [8] = molecular target: α7 nAChR (Homo sapiens, UniProt P36544)
# [9] = molecular target: T1, 5HT3 receptors; format: cell-based; settings: 100 µM; normalized to maximal serotonin response; detection threshold 5%
# [10] = molecular target: T2, muscle type (α1β1εδ) nAChR (Homo sapiens, UniProt P02708+Q04844+Q07001); format: cell-based; settings: 100 µM coapplied with 3 µM ACh
# [11] = molecular target: T2, muscle type (α1β1εδ) nAChR; format: cell-based; settings: 100 µM; normalized to ACh maximum; detection threshold 0.5%
# [12] = molecular target: T3, α4β2 nAChR (Homo sapiens, UniProt P17787+P43681); test: cell-based; format: cell-based
# [13] = molecular target: T3, α4β2 nAChR; format: cell-based; settings: 100 µM coapplied with 30 µM ACh
# [14] = molecular target: T1, 5HT3 receptors; settings: cited from earlier work; remark: listed apart in the source
# [15] = system: human α7; settings: cited from earlier work
# [16] = system: rat α7 nAChR; settings: X. laevis oocytes; ref Papke et al., 2005b; cited from earlier work
# Chain of α7 nAChR (Homo sapiens, UniProt P36544) (P36544 23-502): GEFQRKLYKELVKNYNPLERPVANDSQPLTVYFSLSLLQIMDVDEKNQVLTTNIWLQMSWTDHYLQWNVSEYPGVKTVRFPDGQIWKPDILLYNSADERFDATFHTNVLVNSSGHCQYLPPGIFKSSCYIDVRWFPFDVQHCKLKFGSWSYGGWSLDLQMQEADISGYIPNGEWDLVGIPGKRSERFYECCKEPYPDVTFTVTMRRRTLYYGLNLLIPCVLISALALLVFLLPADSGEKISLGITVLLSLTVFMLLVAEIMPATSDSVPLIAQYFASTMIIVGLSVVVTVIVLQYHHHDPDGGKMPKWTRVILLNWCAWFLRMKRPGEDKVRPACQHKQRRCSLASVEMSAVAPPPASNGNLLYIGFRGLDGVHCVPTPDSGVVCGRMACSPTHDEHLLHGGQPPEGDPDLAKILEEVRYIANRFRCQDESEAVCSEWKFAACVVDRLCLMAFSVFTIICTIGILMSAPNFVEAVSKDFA
# T3 sequence (P43681 29-627 limits assumed): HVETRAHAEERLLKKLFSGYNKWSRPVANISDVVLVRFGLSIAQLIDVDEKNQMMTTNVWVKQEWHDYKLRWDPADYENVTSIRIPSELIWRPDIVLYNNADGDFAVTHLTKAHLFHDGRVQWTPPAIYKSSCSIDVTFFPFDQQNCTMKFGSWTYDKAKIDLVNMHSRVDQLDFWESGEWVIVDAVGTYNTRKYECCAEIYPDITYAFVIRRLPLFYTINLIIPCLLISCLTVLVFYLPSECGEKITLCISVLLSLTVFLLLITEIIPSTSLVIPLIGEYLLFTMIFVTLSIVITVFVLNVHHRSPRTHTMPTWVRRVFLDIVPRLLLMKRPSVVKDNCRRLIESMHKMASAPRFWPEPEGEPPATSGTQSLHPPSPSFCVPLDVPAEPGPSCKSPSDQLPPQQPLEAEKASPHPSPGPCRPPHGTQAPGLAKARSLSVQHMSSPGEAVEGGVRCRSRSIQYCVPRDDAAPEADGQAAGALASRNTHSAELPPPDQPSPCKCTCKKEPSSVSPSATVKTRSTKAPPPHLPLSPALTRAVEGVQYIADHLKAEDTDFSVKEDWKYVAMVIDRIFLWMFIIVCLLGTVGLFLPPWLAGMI
# T3 sequence (P17787 26-502): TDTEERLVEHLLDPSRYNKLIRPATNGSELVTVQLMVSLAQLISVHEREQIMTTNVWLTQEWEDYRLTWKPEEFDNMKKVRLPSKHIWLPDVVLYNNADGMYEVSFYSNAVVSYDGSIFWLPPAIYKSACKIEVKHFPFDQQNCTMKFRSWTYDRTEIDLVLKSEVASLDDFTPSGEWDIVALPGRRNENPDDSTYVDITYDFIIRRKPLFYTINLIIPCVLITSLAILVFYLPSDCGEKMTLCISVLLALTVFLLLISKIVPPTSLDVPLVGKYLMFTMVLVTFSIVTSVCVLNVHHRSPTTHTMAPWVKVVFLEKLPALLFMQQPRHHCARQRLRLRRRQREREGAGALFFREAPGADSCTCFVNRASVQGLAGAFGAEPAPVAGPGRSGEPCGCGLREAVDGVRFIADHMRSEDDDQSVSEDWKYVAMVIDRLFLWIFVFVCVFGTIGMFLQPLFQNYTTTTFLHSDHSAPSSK
# T2 sequence (P02708 21-457): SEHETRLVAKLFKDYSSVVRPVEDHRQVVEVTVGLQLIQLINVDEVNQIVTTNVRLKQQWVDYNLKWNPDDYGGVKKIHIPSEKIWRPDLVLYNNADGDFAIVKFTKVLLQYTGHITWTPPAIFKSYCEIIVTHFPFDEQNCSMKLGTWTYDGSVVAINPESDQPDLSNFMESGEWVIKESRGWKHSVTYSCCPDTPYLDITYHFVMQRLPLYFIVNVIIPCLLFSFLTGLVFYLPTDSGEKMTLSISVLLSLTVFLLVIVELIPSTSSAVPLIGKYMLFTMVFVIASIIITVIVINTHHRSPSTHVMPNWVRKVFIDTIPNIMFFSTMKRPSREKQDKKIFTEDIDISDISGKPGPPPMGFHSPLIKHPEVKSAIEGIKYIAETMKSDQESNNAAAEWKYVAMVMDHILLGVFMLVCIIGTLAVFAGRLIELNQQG
# T2 sequence (P11230 24-501 partner): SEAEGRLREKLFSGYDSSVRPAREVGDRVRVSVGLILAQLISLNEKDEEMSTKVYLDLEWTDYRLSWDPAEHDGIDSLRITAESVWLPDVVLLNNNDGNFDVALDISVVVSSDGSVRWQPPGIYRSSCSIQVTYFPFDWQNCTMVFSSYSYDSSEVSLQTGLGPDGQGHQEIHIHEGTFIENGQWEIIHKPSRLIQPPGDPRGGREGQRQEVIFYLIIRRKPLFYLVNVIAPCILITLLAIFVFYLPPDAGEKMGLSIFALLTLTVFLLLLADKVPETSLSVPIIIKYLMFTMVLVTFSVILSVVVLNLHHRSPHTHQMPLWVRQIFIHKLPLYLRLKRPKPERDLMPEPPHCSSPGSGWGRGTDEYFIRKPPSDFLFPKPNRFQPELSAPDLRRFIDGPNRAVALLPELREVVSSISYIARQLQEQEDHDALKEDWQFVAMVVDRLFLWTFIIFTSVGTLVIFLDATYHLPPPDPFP
# T2 sequence (Q04844 21-493): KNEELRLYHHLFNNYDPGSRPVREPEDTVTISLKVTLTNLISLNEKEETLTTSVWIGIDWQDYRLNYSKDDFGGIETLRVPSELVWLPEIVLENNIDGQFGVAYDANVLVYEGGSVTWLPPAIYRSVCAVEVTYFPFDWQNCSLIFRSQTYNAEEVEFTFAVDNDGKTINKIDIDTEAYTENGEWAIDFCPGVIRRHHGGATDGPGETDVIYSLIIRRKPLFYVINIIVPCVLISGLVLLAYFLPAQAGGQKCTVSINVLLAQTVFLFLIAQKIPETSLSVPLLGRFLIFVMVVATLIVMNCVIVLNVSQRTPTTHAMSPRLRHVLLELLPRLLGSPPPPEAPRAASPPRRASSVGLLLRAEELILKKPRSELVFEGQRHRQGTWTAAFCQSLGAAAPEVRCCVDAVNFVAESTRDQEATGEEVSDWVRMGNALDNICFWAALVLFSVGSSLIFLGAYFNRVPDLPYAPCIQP
# T2 sequence (Q07001 22-517): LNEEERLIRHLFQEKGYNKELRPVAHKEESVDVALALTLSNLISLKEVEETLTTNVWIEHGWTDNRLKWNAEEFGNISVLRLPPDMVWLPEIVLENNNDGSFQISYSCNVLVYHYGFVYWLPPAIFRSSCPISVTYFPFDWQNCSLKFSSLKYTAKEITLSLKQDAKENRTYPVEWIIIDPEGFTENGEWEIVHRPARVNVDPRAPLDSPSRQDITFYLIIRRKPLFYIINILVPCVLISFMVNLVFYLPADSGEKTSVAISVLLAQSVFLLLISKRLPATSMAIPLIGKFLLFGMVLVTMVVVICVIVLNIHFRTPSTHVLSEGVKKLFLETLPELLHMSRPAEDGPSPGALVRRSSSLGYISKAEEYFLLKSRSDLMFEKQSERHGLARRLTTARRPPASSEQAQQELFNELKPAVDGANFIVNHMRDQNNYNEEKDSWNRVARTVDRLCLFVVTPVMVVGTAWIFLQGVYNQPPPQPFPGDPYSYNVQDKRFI
# Chain of α3β4 nAChR (P32297 32-505): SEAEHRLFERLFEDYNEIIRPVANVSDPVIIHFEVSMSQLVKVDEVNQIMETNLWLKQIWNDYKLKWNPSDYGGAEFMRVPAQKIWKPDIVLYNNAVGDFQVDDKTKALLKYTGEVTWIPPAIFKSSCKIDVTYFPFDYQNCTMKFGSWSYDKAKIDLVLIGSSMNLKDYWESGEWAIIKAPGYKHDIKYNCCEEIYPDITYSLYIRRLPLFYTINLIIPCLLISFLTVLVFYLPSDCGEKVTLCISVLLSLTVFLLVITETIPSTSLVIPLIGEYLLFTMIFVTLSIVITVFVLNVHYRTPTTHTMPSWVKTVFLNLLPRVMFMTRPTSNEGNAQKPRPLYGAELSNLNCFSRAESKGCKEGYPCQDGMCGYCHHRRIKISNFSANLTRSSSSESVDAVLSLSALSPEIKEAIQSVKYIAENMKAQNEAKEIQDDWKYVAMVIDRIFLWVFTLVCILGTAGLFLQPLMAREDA
# Chain of α3β4 nAChR (P30926 22-498): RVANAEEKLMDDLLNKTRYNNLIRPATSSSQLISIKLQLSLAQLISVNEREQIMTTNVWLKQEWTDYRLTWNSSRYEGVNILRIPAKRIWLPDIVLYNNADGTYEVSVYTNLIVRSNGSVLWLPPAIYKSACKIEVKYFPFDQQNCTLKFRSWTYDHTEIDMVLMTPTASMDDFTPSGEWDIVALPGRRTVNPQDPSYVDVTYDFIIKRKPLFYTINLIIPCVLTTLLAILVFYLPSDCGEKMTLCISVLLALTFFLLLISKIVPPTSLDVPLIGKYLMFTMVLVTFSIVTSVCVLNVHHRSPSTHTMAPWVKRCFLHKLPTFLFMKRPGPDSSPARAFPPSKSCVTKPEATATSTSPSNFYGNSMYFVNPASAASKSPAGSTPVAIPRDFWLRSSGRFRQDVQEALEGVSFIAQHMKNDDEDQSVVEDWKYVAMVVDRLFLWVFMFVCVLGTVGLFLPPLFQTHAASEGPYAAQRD
compound,measurement,setting,value
O=C(N[C@H]1CN2CCC1CC2)c1ccc(Cl)cc1 [PNU-282987],Ki,"[1]; read-out: Ki, displacement of MLA binding from rat brain homogenates",0.027 µM
same,IC50,[2]; read-out: IC50 5HT3 receptors (functional antagonist),~5 µM
CN1C[C@@H]2CN(c3ccc4oc5ccccc5c(=O)c4c3)C[C@@H]2C1 [A-844606],activity at other nAChR (Summary),[3],Partial agonist of a7 with relatively little activation of other nAChR tested. Demonstrated to have antagonist activity for α4β2 and more potently for putative α3β4. Mechanism of antagonism not investigated.
same,agonist character at α7 (Summary),[4],Partial agonist of a7 with relatively little activation of other nAChR tested. Demonstrated to have antagonist activity for α4β2 and more potently for putative α3β4. Mechanism of antagonism not investigated.
"C[N+](C)(C)CCO [Choline, choline, reference compound]",5HT3 Inhibition,[5],N.S.
same,agonist character at α3β4,[6],too low to be characterized in regard to potency
same,α3β4 Imax,"[6]; peak current, relative to ACh maximum (ACh constrained to 1)",0.04 ± 0.01
same,activity at α9 nAChR (Summary),[7],agonist
same,EC50,[8],243 ± 8 µM
same,α7 Imax,[8],0.90 ± 0.1
same,"α7 potency, fold less potent than ACh",[8],approximately 10 fold
same,"α7 potency, fold lower than related agonists that lack the oxygen group (e.g., ETMA and QN)",[8],at least 10 fold
same,5HT3 Activity,[9],N
same,α1β1εδ Inhibition,[10],N.S.
same,α1β1εδ Activity,[11],N
same,activity at heteromeric nAChR (Summary),"[3]; ref Papke et al., 1996, Verbitsky et al., 2000",little or no activity
same,α4β2 Activity,"[12]; 100 µM, normalized to ACh maximum, detection threshold 1%",≈1%
same,"α4β2 response, % of the ACh maximum",[12]; 3 mM agonist,2.3 ± 0.3% and 2%
same,"potency for α7, fold lower than that of ACh",[4],10 fold
same,α4β2 Inhibition,[13],N.S.
C[C@H](OC(=O)N[C@@H]1CN2CCC1CC2)c1ccccc1F [JN403],IC50,[2]; read-out: IC50 5HT3 receptors (antagonist),~20 µM
same,activity at 5HT3 receptors and other nAChRs (Summary),[3],"In the X. laevis oocyte experiments, JN403 was a relatively potent partial agonist, with an efficacy of approximately 50% of that of ACh. 5HT3 receptors and other nAChRs were evaluated with calcium flux measurements in transfected cells, and JN403 was antagonist in these experiments."
same,"α7 efficacy, % of that of ACh",[4],"In the X. laevis oocyte experiments, JN403 was a relatively potent partial agonist, with an efficacy of approximately 50% of that of ACh. 5HT3 receptors and other nAChRs were evaluated with calcium flux measurements in transfected cells, and JN403 was antagonist in these experiments."
"COc1ccccc1-c1cccc2cc(C(=O)N[C@H]3CN4CCC3CC4)oc12 [ABBF, N-[(3R)-1-azabicyclo[2.2.2]oct-3-yl]-7-[2-(methoxy)phenyl]-1-benzofuran-2-carboxamide]",affinity for rat brain membrane α7 sites,[1],"Putative full agonist for human α7 (EC50 ≈ 3 µM) and an antagonist for other nAChR tested (IC50 values of 1–8 µM). Mechanism of antagonism not investigated. Bound to 5HT3 receptors with high affinity (60 nM), comparable with rat brain membrane α7 sites (62 nM)."
same,Effects on 5HT3 Receptors,[2],Antagonist
same,affinity for 5HT3 receptors,[14],"Putative full agonist for human α7 (EC50 ≈ 3 µM) and an antagonist for other nAChR tested (IC50 values of 1–8 µM). Mechanism of antagonism not investigated. Bound to 5HT3 receptors with high affinity (60 nM), comparable with rat brain membrane α7 sites (62 nM)."
same,agonist character at human α7 (Summary),[15],"Putative full agonist for human α7 (EC50 ≈ 3 µM) and an antagonist for other nAChR tested (IC50 values of 1–8 µM). Mechanism of antagonism not investigated. Bound to 5HT3 receptors with high affinity (60 nM), comparable with rat brain membrane α7 sites (62 nM)."
same,EC50,[15]; read-out: EC50 human α7,~3 µM
O=C(Oc1ccc(Br)cc1)N1CCN2CCC1CC2 [SSR-180711],agonist character at α7 (Summary),"[4]; binding and voltage-clamp experiments, ref Biton et al., 2007",A relatively potent partial agonist with selectivity for α7 compared with other nAChR subtypes tested established by binding and voltage-clamp experiments.
"cis-1-methyl-2,3,3a,4,5,9b,-hexahydro-1H-pyrrolo[2,3-f]quinoline [ACME]","Imax, % of that of ACh, rat α7 nAChR",[16],"The rigid nicotine analogs ACME and ACME-B were partial agonists for rat α7 nAChR (Imax, 10 and 20% of that of ACh, respectively). ACME-B was 2-fold more potent (EC50 ≈ 26 µM) than the boron-free form ACME. Potential antagonist activity of non-α7 nAChR not investigated."
"c1cncc(C2CCC3CCN2CC3)c1 (stereo not shown) [TC-1698, 2-(3-pyridyl)-1-azabicyclo[3.2.2]nonane]",activation of the heteromeric neuronal nAChR tested (Summary),[3],A potent full agonist for α7 nAChR with negligible activation of the heteromeric neuronal nAChR tested but with low-potency partial agonist activity for muscle nAChR. Effective competitive antagonist at α4β2 nAChR.
same,activity at α4β2 nAChR (Summary),[3],A potent full agonist for α7 nAChR with negligible activation of the heteromeric neuronal nAChR tested but with low-potency partial agonist activity for muscle nAChR. Effective competitive antagonist at α4β2 nAChR.
same,activity for muscle nAChR (Summary),[3],A potent full agonist for α7 nAChR with negligible activation of the heteromeric neuronal nAChR tested but with low-potency partial agonist activity for muscle nAChR. Effective competitive antagonist at α4β2 nAChR.
same,agonist character at α7 (Summary),[4],A potent full agonist for α7 nAChR with negligible activation of the heteromeric neuronal nAChR tested but with low-potency partial agonist activity for muscle nAChR. Effective competitive antagonist at α4β2 nAChR.
CCN(CC)CCOc1ccc2c(c1)C(=O)c1cc(OCCN(CC)CC)ccc1-2 [Tilorone],activity at other nAChR (Summary),"[3]; α4β2, putative α3β4 (IMR-32), ref Briggs et al., 2008",antagonist activity for α4β2 and more potently for putative α3β4
same,agonist character at α7 (Summary),"[4]; human α7, rat α7, oocytes, transfected cells, ref Briggs et al., 2008",Partial agonist
"O=C(N[C@H]1CN2CCC1CC2)c1cc2ccoc2cn1 [PHA-543,613, N-[(3R)-1-azabicyclo[2.2.2]oct-3-yl]furo[2,3-c]pyridine-5-carboxamide]","5HT3 receptors, inhibitory activity at","[2]; ref Wishka et al., 2006",Inhibitory activity at ≈ 600 nM
